# Test results: paper PMC10564737, “Structure-based design of a phosphotyrosine-masked covalent ligand targeting the E3 ligase SOCS2” (Nature Communications, 2023)
# Entries after “also recorded” stand apart in the source; their conditions may differ.
# Experiments:
# CISH-EloBC = target: T1, CISH-EloBC (Homo sapiens, UniProt Q9NSE2, DEL174-202); assay: Intact ESI-MS of recombinant protein, covalent modification; format: biochemical; details: CISH + MN551 (1:1, 40 µM), 0 min
# T1 construct: CISH (66-258 Δ174-202) was codon-optimized for bacterial expression; GST (from pGEX-6P-1); made in house; host or cells: E. coli BL21(DE3)
# From the text: Having established the specificity of MN551 for covalent modification of Cys111 of SOCS2, we turned our attention to the intra-SOCS family selectivity of MN551. We performed a multiple sequence alignment of the SH2 domains from all the SOCS proteins (Fig. 3a). The Cys111 targeted by MN551 for covalency is part of the EF loop in SOCS2. Beyond SOCS2, other family members SOCS4, SOCS5, SOCS7, and CISH also have a cysteine in the same loop (Fig. 3a), and given the expected conserved ligand binding mode, they could all be engaged by MN551. To verify our hypothesis, we incubated recombinant SOCS/EloBC complexes of SOCS4 (SBC4), SOCS6 (SBC6), and CISH with MN551 for 2 h and analyzed for covalent modification of the SOCS proteins by intact ESI-MS (Fig. 3b–d). These proteins were chosen as SOCS4 and SOCS6 are already structurally well characterized, and because SOCS4 Cys350, and CISH Cys144 are in a similar position as Cys111 in SOCS2, whereas SOCS6 is lacking cysteines in the EF loop[36]–[38]. […] Although SOCS6 lacks a cysteine in its EF loop, Cys471 from the BG loop is predicted to be in close proximity to the chloroacetamide functional group of MN551, as evident from the superposed SOCS2 and SOCS6 structures, potentially explaining the modification, albeit minimal (Fig. 3f). Structure-guided improvements upon this observed MN551-SOCS6 covalency could expedite future attempts in development of covalent binders for SOCS6. In the absence of a PDB structure for CISH, we overlayed SOCS2-SH2 domain with an AlphaFold model generated for the CISH SH2 domain with deletions in the N-terminus and the PEST sequence (66-258, Δ174-202, Fig. 3g). Amongst all the SOCSs, CISH has the highest sequence identity to SOCS2-SH2 and the presence of a conserved Cys144 in the EF loop together likely explain its complete covalent modification by MN551.
# (§1) SBC2 protein (40 µM), SBC2 C111S, SBC4, SBC6, or CISH were incubated with an equimolar concentration of MN551 in 50 mM Tris, pH 8.0, 50 mM NaCl, 1 mM TCEP. At defined time points 20 µl samples were removed and the protein precipitated by the addition of 80 µl methanol. The precipitated protein was pelleted by centrifugation, washed with 500 µl methanol, and resuspended in an aqueous solution of 15% acetonitrile and 1% TFA. Samples were separated by HPLC on a C3 column using a 10–75% gradient of acetonitrile and analyzed using an Agilent 6130 quadrupole MS. Spectra were deconvoluted and integrated using Agilent LC/MSD ChemStation.
# SBC2 = target: T2, SBC2 (Homo sapiens, UniProt O14508); assay: Differential scanning fluorimetry (DSF); format: binding; details: 5 µM SBC2 + 100 µM MN551
# T2 construct: SOCS2 (amino acids 32–198); His6 (N, cleaved yes); made in house; host or cells: E. coli BL21(DE3)
# Procedure: DSF experiments were performed on a Biorad CFX96 RT-PCR machine. […] of SBC2 were incubated with […] MN551 (2 % DMSO) or DMSO control in 50 mM Tris, pH 8.0, 50 mM NaCl and 6.6 × SYPRO Orange. The temperature was ramped up in 1 °C steps between 25 and 95 °C with 30 s incubation at each step. Melting curves were analyzed by determining the minimum of the first derivative using the Biorad CFX Manager software.
# [1] = target: T3, SOCS2 C111S mutant (SBC2 C111S) (Homo sapiens, UniProt O14508, C111S); assay: Intact ESI-MS of recombinant protein, covalent modification; format: biochemical; details: for % modified: SOCS2 C111S + MN551 (1:1, 50 µM)
# T3 construct: SOCS2 (amino acids 32–198); His6 (N, cleaved yes); made in house; host or cells: E. coli BL21(DE3)
# Procedure: as §1, with “SBC2 protein (40 µM), SBC2 C111S, SBC4, SBC6, or CISH were incubated with an equimolar concentration of MN551 in 50 mM Tris, pH 8.0, 50 mM NaCl, 1 mM TCEP.” left out
# SOCS2 = target: T4, SOCS2 (Homo sapiens, UniProt O14508); assay: SOCS2 pulldown with biotinylated GHR_pY595 peptide from K562 cells pre-treated with compound; format: cell-based; details: K562 cells pre-treated with 10 µM for 6 h
# T4 construct: endogenous SOCS2 from K562 lysates; endogenous in cells; host or cells: K562
# T4 sequence (O14508 1-198): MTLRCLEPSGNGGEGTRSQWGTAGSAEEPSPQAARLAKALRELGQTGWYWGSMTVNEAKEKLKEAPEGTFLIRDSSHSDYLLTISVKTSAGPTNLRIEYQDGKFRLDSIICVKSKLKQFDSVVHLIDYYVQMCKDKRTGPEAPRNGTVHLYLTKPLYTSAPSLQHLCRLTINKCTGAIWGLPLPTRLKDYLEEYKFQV
# Procedure: Pulldown of cellular SOCS2 was abrogated when K562 cells were pre-treated for 6 h with MN714 prior to cell lysis, further evidencing the inhibitor cell permeability and specific target engagement (Fig. 6c).
# K562 cells were treated with either DMSO or 10 µM MN714 for 6 h before being lysed. For experiments with MN551, DMSO-treated lysate was used. DMSO-treated K562 lysate (1 mg/ml) was pre-cleared using control agarose beads (Pierce Control Agarose Resin, 26150) which were washed thrice using 50 mM Tris pH 7.4, 150 mM NaCl buffer. […] Unbound peptide was washed off through 3× cycles of buffer wash and spin. Beads were resuspended to a total volume of 100 µl per IP sample. 100 µl beads with immobilized peptides was added to the MN551 lysate tubes. Samples were incubated for 40 min at room temperature. Samples were spun and unbound supernatant was removed. Beads were washed 3× with 0.05% NP40, 50 mM Tris pH 7.4, 150 mM NaCl buffer before being resuspended in 35 µl 1× LDS. Samples were heated for 10 min at 95 °C after which the elute was transferred to a fresh tube. 20 µl of each sample was analyzed by Western Blot (4-12% Bis-Tris gel 180 V, 60 mins) before blotting for SOCS2 (ab109245, 1:1000 dilution) overnight at 4 °C. Uncropped blot images collected with ChemiDoc Touch imaging system (BioRad) operated by Image Lab (v2.4.0.03) and antibody validation provided in Source Data. […]
SMILES,% modified (CISH-EloBC) [%],"ΔTm, shift in the melting temperature of SBC2 (SBC2) [°C]",covalent reactivity with C111S mutant [1],% modified ([1]; t = 0 min) [%],% modified ([1]; t = 5 min) [%],% modified ([1]; t = 10 min) [%],% modified ([1]; t = 20 min) [%],% modified ([1]; t = 40 min) [%],% modified ([1]; t = 60 min) [%],% modified ([1]; t = 90 min) [%],% modified ([1]; t = 120 min) [%],pulldown of cellular SOCS2 with GHR pY595 peptide (SOCS2)
O=C(CCl)Nc1cccc(CNC(=O)[C@H](Cc2ccc(OP(=O)(O)O)cc2)NC(=O)Cc2ccc(F)cc2)c1 [MN551],0.0,6,no reactivity; also recorded: does not covalently react,0.0,0.0,0.0,0.0,0.0,0.0,0.0,0.0,
CC(C)(C)C(=O)OCOP(=O)(OCOC(=O)C(C)(C)C)Oc1ccc(C[C@H](NC(=O)Cc2ccc(F)cc2)C(=O)NCc2cccc(NC(=O)CCl)c2)cc1 [MN714],,,,,,,,,,,,abrogated; also recorded: effective blockade of SOCS2-GHRpY interaction
